According to ChEMBL document CHEMBL1201862, “PubChem BioAssay data set” (2004):
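Five compound concentrations were applied to cells in 96-well plates for 48 hours; endpoints were derived by simple linear interpolation of the resulting dose-response curve. GI50: concentration for 50% inhibition of growth.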 Active and inactive are the calls of the source. No stated cut-off is given here; in the data, active = GI50 up to about 1.1 µM and inactive = higher.

What was measured:
Assay in all cases: NCI tumour cell line growth inhibition, 48 h
NCI-H460 = test system: NCI-H460
TK-10 = test system: TK-10
UACC-257 = test system: UACC-257
A498 = test system: A498
SN12C = test system: SN12C
IGROV-1 = test system: IGROV-1
OVCAR-3 = test system: OVCAR-3
SF-295 = test system: SF-295
SK-MEL-28 = test system: SK-MEL-28
SW-620 = test system: SW-620
UACC-62 = test system: UACC-62
Malme-3M = test system: Malme-3M
SNB-75 = test system: SNB-75
SF-539 = test system: SF-539
SK-MEL-2 = test system: SK-MEL-2
MOLT-4 = test system: MOLT-4

Compound: O=c1c2c(-c3ccccc3)c3ccccc3nc2cnn1-c1ccccc1
- GI50 (NCI-H460): > 100 µM (inactive)
- GI50 (TK-10): > 100 µM (inactive)
- GI50 (UACC-257): > 100 µM (inactive)
- GI50 (A498): > 100 µM (inactive)
- GI50 (SN12C): > 100 µM (inactive)
- GI50 (IGROV-1): > 100 µM (inactive)
- GI50 (OVCAR-3): 55.5 µM (inactive)
- GI50 (SF-295): > 100 µM (inactive)
- GI50 (SK-MEL-28): > 100 µM (inactive)
- GI50 (SW-620): 91.4 µM (inactive)
- GI50 (UACC-62): > 100 µM (inactive)
- GI50 (Malme-3M): > 100 µM (inactive)
- GI50 (SNB-75): > 100 µM (inactive)
- GI50 (SF-539): > 100 µM (inactive)
- GI50 (SK-MEL-2): > 100 µM (inactive)
- GI50 (MOLT-4): 96.2 µM (inactive)

Compound: CC/C(C)=C1\CCC(CN2CCOCC2)C1=O (stereo not drawn)
- GI50 (NCI-H460): 17.8 µM (inactive)
- GI50 (TK-10): 14.5 µM (inactive)
- GI50 (UACC-257): 17.3 µM (inactive)
- GI50 (A498): 21.2 µM (inactive)
- GI50 (SN12C): 8.69 µM (inactive)
- GI50 (IGROV-1): 20.4 µM (inactive)
- GI50 (OVCAR-3): 15 µM (inactive)
- GI50 (SF-295): > 100 µM (inactive)
- GI50 (SK-MEL-28): 17.4 µM (inactive)
- GI50 (SW-620): 15.1 µM (inactive)
- GI50 (UACC-62): 17.6 µM (inactive)
- GI50 (Malme-3M): 17.7 µM (inactive)
- GI50 (SNB-75): 25.2 µM (inactive)
- GI50 (SF-539): 20.2 µM (inactive)
- GI50 (SK-MEL-2): 17.8 µM (inactive)
- GI50 (MOLT-4): 22.5 µM (inactive)

Compound: COc1ccccc1/C=C1\CCC(CNc2ccc(Cl)cc2)C1=O (stereo not drawn)
- GI50 (NCI-H460): 1.43 µM (inactive)
- GI50 (TK-10): 5.18 µM (inactive)
- GI50 (UACC-257): 13.8 µM (inactive)
- GI50 (A498): 13.8 µM (inactive)
- GI50 (SN12C): 13.7 µM (inactive)
- GI50 (IGROV-1): 5.83 µM (inactive)
- GI50 (OVCAR-3): 10.2 µM (inactive)
- GI50 (SF-295): 2.49 µM (inactive)
- GI50 (SK-MEL-28): 13.2 µM (inactive)
- GI50 (SW-620): 2.09 µM (inactive)
- GI50 (UACC-62): 0.36 µM (active)
- GI50 (Malme-3M): 14.5 µM (inactive)
- GI50 (SNB-75): 15 µM (inactive)
- GI50 (SF-539): 5.82 µM (inactive)
- GI50 (SK-MEL-2): 13.2 µM (inactive)
- GI50 (MOLT-4): 2.86 µM (inactive)

Compound: COc1ccc(N2C(=O)C(N3C(=O)C=CC3=O)C2C=O)cc1 (stereo not drawn)
- GI50 (NCI-H460): > 100 µM (inactive)
- GI50 (TK-10): > 100 µM (inactive)
- GI50 (UACC-257): > 100 µM (inactive)
- GI50 (A498): > 100 µM (inactive)
- GI50 (SN12C): > 100 µM (inactive)
- GI50 (IGROV-1): > 100 µM (inactive)
- GI50 (OVCAR-3): > 100 µM (inactive)
- GI50 (SF-295): > 100 µM (inactive)
- GI50 (SK-MEL-28): > 100 µM (inactive)
- GI50 (SW-620): > 100 µM (inactive)
- GI50 (UACC-62): > 100 µM (inactive)
- GI50 (Malme-3M): > 100 µM (inactive)
- GI50 (SNB-75): > 100 µM (inactive)
- GI50 (SF-539): > 100 µM (inactive)
- GI50 (SK-MEL-2): > 100 µM (inactive)

Compound: COC(=O)C(CC1=C(O)Nc2ccccc2N1)/C(=N/NC(N)=O)C(=O)Nc1ccccc1C (stereo not drawn)
- GI50 (NCI-H460): 28.8 µM (inactive)
- GI50 (TK-10): > 100 µM (inactive)
- GI50 (UACC-257): > 100 µM (inactive)
- GI50 (A498): > 100 µM (inactive)
- GI50 (SN12C): > 100 µM (inactive)
- GI50 (IGROV-1): > 100 µM (inactive)
- GI50 (OVCAR-3): > 100 µM (inactive)
- GI50 (SF-295): > 100 µM (inactive)
- GI50 (SK-MEL-28): 34.7 µM (inactive)
- GI50 (UACC-62): > 100 µM (inactive)
- GI50 (Malme-3M): > 100 µM (inactive)
- GI50 (SNB-75): > 100 µM (inactive)
- GI50 (SF-539): > 100 µM (inactive)
- GI50 (SK-MEL-2): > 100 µM (inactive)
- GI50 (MOLT-4): > 100 µM (inactive)

Compound: COc1ccc(C23c4ccc(OC)cc4CC2(c2ccc([N+](=O)[O-])cc2)Cc2cc(OC)ccc23)cc1 (stereo not drawn)
- GI50 (NCI-H460): > 89.1 µM (inactive)
- GI50 (TK-10): > 92.5 µM (inactive)
- GI50 (UACC-257): > 51.3 µM (inactive)
- GI50 (A498): > 29.7 µM (inactive)
- GI50 (SN12C): > 50.6 µM (inactive)
- GI50 (IGROV-1): > 21.5 µM (inactive)
- GI50 (OVCAR-3): > 39.2 µM (inactive)
- GI50 (SK-MEL-28): > 17.9 µM (inactive)
- GI50 (SW-620): > 100 µM (inactive)
- GI50 (UACC-62): > 17.1 µM (inactive)
- GI50 (Malme-3M): > 38.2 µM (inactive)
- GI50 (SNB-75): > 83.6 µM (inactive)
- GI50 (SF-539): > 14.2 µM (inactive)
- GI50 (SK-MEL-2): > 74.1 µM (inactive)
- GI50 (MOLT-4): > 36.2 µM (inactive)
